What was measured:
Format in all cases: cell-based, human
ILC cells [1] = assay: Flow cytometry of islet-like clusters differentiated from hiPSC with the combination protocol
Description: Beta cell differentiation from iPSC aggregates was carried out using several hiPSC lines with a new protocol derived by combining two published protocols (Nostro et al., Stem Cell Reports (2015), 4(4): 591-604; Rezania et al., Nat Biotechnol (2014), 32(11): 1121-1133), further referred to as “combination protocol”. iPSCs were seeded as single cells in suspension at 1×10^6 cells/mL in mTeSR1 (StemCell Technologies Inc.; 05850) with […] Y-27632 and kept in culture in 100 mL spinner flasks on a stirring platform to form aggregates under low shear conditions (see e.g. Fok and Zandstra, Stem Cells 2005; 23:1333-1342). At day 0 of differentiation, iPSC clusters were treated with Basal medium 1 (BM1) with the addition of 100 ng/mL Activin A, 2 μM CHIR 99021 and 10 μM Y-27632 to induce definitive endoderm. On subsequent days, media change was performed as described below, and occurred daily up to day 14, every other day after that. Definitive endoderm (DE) was induced from day 0 to day 3 and gut tube (GT) was patterned from day 3 to day 6. On day 6, pancreatic progenitors (PP) were induced until day 11. Commitment to the endocrine (EN) lineage was then performed between day 11 and day 14, and day 14 EN clusters were differentiated to islet-like clusters (ILCs) until day 24 (FIG. 1).
As a result, the content of chromogranin A^pos cells rose to levels above 95% (FIGS. 2A, 2C).
The addition of gamma secretase inhibitor and removal of T3 led to increased populations of pancreatic islet endocrine cells in islet-like clusters. […] In addition, the somatostatin^pos population was increased in islet-like clusters generated with the addition of gamma secretase inhibitor and removal of T3 (FIG. 7; FIG. 11; FIG. 14; FIG. 15A).
Quantification of the EC cell population in islet-like clusters was performed by FACS for serotonin^pos and C-peptide^neg cells. While islet-like clusters generated using the combination protocol (Control) contain 30% of pancreatic EC cells, the addition of gamma secretase inhibitor in absence of T3 (+GSI/−T3) led to a drastic reduction of this population, down to levels <15% (FIGS. 5A, 5B).

ILC cells [2] = assay: Flow cytometry of islet-like clusters obtained with the second protocol; conditions: second protocol with addition of GSI and removal of T3
Source text: As the combination protocol, the second protocol starts with seeding and aggregation of single pluripotent cells in suspension, and proceeds through the same intermediate stages of pancreatic embryonic development (definitive endoderm/DE, primitive gut tube, pancreatic progenitors, endocrine differentiation) to beta cell-containing islet-like clusters (ILCs) containing C-peptide^pos/insulin^pos/NKX6.1^pos beta cells. Differences to the combined protocol include the addition of a combination of BMP4 and bFGF during the first day of DE induction (see also Example 4), and longer durations of media incubations during pancreatic progenitor and endocrine induction, resulting in an overall longer time from start of differentiation to EN stage (EN stage on day 16 instead of day 14). Similar to the combined protocol, the second protocol was modified by additional gamma secretase inhibitor treatment in absence of T3 during the EN to ILC transition. The latter version of the adapted protocol is referred to “second protocol +GSI/−T3”.

[3] = tested on: post-thaw islet-like clusters; assay: Post-thaw recovery rate of islet-like clusters (viable cell count); conditions: combination protocol, frozen at EN stage with Medium A, freezing procedure A; GSI without T3 after thawing
Description: (§1) Using the combination protocol, induced pluripotent stem cells were differentiated into EN clusters. […] Clusters were cryoprotected before freezing by addition of the basal cryoprotective medium, consisting of KnockOut™ Serum Replacement, 10 μM ROCKi and 2 μM fatty acids, with increasing concentrations of DMSO and EG, in combination with incubation steps at decreasing temperatures. The DMSO and EG concentrations during the cryoprotection protocol and the corresponding stock concentrations, along with incubation times and temperatures, are given in table 1.
EN clusters, transferred to cryogenic vials, were frozen directly after the stepwise cryoprotection treatment in a controlled rate freezer using the following protocol (freezing procedure A): • 1. The sample is cooled-down to −7.5° C. (+/−0.7° C.); • 2. […]
Recovery rates were determined after post-thaw culture of 4-6 days, i.e. differentiation into islet-like clusters, by determination of viable cell count. Clusters, dissociated into single cells, were stained and analysed for different markers with flow cytometry. […]
Subsequent to the cryoprotection, the clusters were frozen using freezing procedure A, as described. […] Recovery rates of post-thaw islet-like clusters were determined by determination of viable cell count. Viability was determined with a viability staining with PI and FDA, imaged with a fluorescence microscope. […]

[4] = tested on: post-thaw islet-like clusters; assay: Flow cytometry of post-thaw islet-like clusters; conditions: combination protocol
Description: as §1
EN clusters, transferred to cryogenic vials, were frozen directly after the stepwise cryoprotection treatment in a controlled rate freezer using the following protocol (freezing procedure A): • 1. The sample is cooled-down to −7.5° C. (+/−0.7° C.); • 2. Induction of nucleation by mechanical agitation and inducing a supercool spot at the outer vial wall; • 3. Incubation for 15-minutes at −7.5° C.; • 4. Cool-down of sample to −40° C. at a rate of 0.3° C. per minute; • 5. Immersion of sample in liquid nitrogen; • 6. Transfer to liquid N2 tank for long-term storage.
After low-temperature storage of at least seven days, the EN clusters were thawed rapidly in a 37° C. waterbath and the cryoprotective medium is diluted with thawing medium, consisting of differentiation medium for the EN-stage as described previously, according to the combination protocol, supplemented with 20% KnockOut™ Serum Replacement and 10 μM ROCKi. After resuspension in fresh thawing medium, the EN clusters are cultured under standard culture conditions. The supplements in the thawing medium are removed by medium change after 24 hours, using differentiation medium for the EN-stage, according to the combination protocol, for further differentiation. Afterwards, the culture medium was refreshed regularly. […]
Recovery rates were determined after post-thaw culture of 4-6 days, i.e. differentiation into islet-like clusters, by determination of viable cell count. Clusters, dissociated into single cells, were stained and analysed for different markers with flow cytometry.

[5] = tested on: post-thaw islet-like clusters; assay: Single-cell RNA sequencing of post-thaw islet-like clusters; conditions: second protocol, frozen at EN+1
Description: While applying the second differentiation protocol, clusters were frozen at EN+1 using the described cryoprotective medium of 7.2% DMSO+2.8% EG added within the stepwise cryoprotection treatment and freezing procedure A. After thawing the EN clusters as described, the clusters were differentiated into islet-like clusters according to the second protocol (Control) in comparison to the second protocol with extension of GSI and without T3 addition. Single-cell RNA sequencing was carried out after thawing and differentiation into islet-like clusters, after dissociation of clusters into single cells.

islet-like clusters = assay: Single cell RNA sequencing and histology of islet-like clusters
Description: Beta cell differentiation from iPSC aggregates was carried out using several hiPSC lines with a new protocol derived by combining two published protocols (Nostro et al., Stem Cell Reports (2015), 4(4): 591-604; Rezania et al., Nat Biotechnol (2014), 32(11): 1121-1133), further referred to as “combination protocol”. iPSCs were seeded as single cells in suspension at 1×10^6 cells/mL in mTeSR1 (StemCell Technologies Inc.; 05850) with […] Y-27632 and kept in culture in 100 mL spinner flasks on a stirring platform to form aggregates under low shear conditions (see e.g. Fok and Zandstra, Stem Cells 2005; 23:1333-1342). At day 0 of differentiation, iPSC clusters were treated with Basal medium 1 (BM1) with the addition of 100 ng/mL Activin A, 2 μM CHIR 99021 and 10 μM Y-27632 to induce definitive endoderm. On subsequent days, media change was performed as described below, and occurred daily up to day 14, every other day after that. Definitive endoderm (DE) was induced from day 0 to day 3 and gut tube (GT) was patterned from day 3 to day 6. On day 6, pancreatic progenitors (PP) were induced until day 11. Commitment to the endocrine (EN) lineage was then performed between day 11 and day 14, and day 14 EN clusters were differentiated to islet-like clusters (ILCs) until day 24 (FIG. 1). […]

[6] = addition of gamma secretase inhibitor and removal of T3, compared to control
[7] = GSI in absence of T3 after thawing

Structure (SMILES): C[C@H](NC(=O)Cc1cc(F)cc(F)c1)C(=O)N[C@H]1N=C(c2ccccc2)c2ccccc2N(C)C1=O [gamma secretase inhibitor, gamma secretase inhibitor XXI (CAS 209986-17-4)]
- content of chromogranin A^pos cells (ILC cells [1]; addition of gamma secretase inhibitor (1 μM, day 14-17) and removal of T3 after EN stage, combination protocol): above 95%
- glucagon^pos cells (ILC cells [1]; [6]): Significantly higher numbers
- NKX6.1^pos/C-peptide^pos beta cell population (ILC cells [1]; addition of gamma secretase inhibitor and removal of T3, FACS): > 65%
- VMAT1/SLC18A1 expression (ILC cells [1]; addition of gamma secretase inhibitor in absence of T3): similarly reduced
- pancreatic EC cells (serotonin^pos and C-peptide^neg) (ILC cells [1]; addition of gamma secretase inhibitor in absence of T3, combination protocol, control 30%): < 15%
- NKX6.1^pos/C-peptide^pos cells (ILC cells [2]): above 65%
- serotonin^pos/C-peptide^neg cells (ILC cells [2]): only a small fraction
- post-thaw recovery versus control [3]: increases the post-thaw recovery
- number of Chromogranin^pos cells in post-thaw islet-like clusters versus control [4, 7]: increases
- number of beta-cells in post-thaw islet-like clusters versus control [4, 7]: increases
- C-peptide^neg/serotonin^pos cell levels in post-thaw islet-like clusters versus control ([4]; GSI while omitting T3 after thawing): decreases
- population of ductal cells, post-thaw ([5]; GSI without T3): decreased to low levels
- populations of ARX^pos cells, post-thaw, versus Ctrl ([5]; extended GSI in absence of T3): increased
- populations of beta-cells, post-thaw, versus Ctrl ([5]; extended GSI in absence of T3): increased
- somatostatin (SST)^pos cells, post-thaw, versus Ctrl ([5]; extended GSI in absence of T3): increased
- ductal cells (SOX9^pos/CFTR^pos) (islet-like clusters; addition of gamma secretase inhibitor and removal of T3): Only residual ductal cells
- somatostatin^pos population (islet-like clusters; [6]): increased
